Patent US6221865A, “Inhibitors of protein isoprenyl transferases” (priority 1998, dated 2001)
Structures can show the parent of a compound that is named as a salt.

target: T1, protein farnesyltransferase (Rattus norvegicus, UniProt Q02293+Q04631); test: Inhibition of farnesyltransferase (scintillation proximity assay, rat brain enzyme, biotin-K Ras B fragment substrate); type: biochemical; conditions: 1 × 10^-5 M (Table 1)
T1 construct: The enzyme is purified according to Reiss, Y., et al., Cell, 62: 81-88 (1990), utilizing steps one through three; from tissue; host or cells: rat brain
T1 sequence (Q02293 whole entry, the tested form may be a part, one chain of several): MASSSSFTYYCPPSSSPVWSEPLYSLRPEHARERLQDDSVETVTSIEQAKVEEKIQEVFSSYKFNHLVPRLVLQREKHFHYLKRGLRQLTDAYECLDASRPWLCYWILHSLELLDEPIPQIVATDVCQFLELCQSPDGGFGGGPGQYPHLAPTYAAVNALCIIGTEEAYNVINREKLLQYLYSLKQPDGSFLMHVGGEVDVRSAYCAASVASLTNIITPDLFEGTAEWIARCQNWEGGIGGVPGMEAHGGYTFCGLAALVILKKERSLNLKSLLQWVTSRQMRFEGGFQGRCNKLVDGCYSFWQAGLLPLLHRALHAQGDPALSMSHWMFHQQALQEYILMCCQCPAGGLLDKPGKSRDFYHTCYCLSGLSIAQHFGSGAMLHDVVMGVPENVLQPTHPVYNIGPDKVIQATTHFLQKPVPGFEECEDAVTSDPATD
Description: The ability of the compounds of the invention to inhibit protein farnesyltransferase or protein geranylgeranyltransferase can be measured according to the method of Moores, et al., J. Biol. Chem. 266: 14603 (1991) or the method of Vogt, et al., J. Biol. Chem. 270:660-664 (1995). In addition, procedures for determination of the inhibition of farnesylation of the oncogene protein Ras are described by Goldstein, et al., J. Biol. Chem., 266:15575-15578 (1991) and by Singh in U.S. Pat. No. 5,245,061.
In addition, in vitro inhibition of protein farnesyltransferase may be measured by the following procedure. Rat brain protein farnesyltransferase activity is measured using an Amersham Life Science commercial scintillation proximity assay kit and substituting a biotin-K Ras B fragment (biotin-[…]Ble-Met-CO2 H), […] final concentration, for the biotin-lamin substrate provided by Amersham. The enzyme is purified according to Reiss, Y., et al., Cell, 62: 81-88 (1990), utilizing steps one through three.
The % inhibition of protein farnesyltransferase was determined for representative compounds of the invention.

SMILES	% inhibition of farnesyltransferase at 1 × 10^-5 M [%]
CSCC[C@H](NC(=O)c1ccc(CNc2ccc(C)c(C)c2)cc1-c1ccccc1)C(=O)O [Example 704]	67
CSCC[C@H](NC(=O)c1ccc(CNc2ccccc2N(C)C)cc1-c1ccccc1)C(=O)O [Example 672]	48
CSCC[C@H](NC(=O)c1ccc(CNc2cccc(OC(F)(F)F)c2)cc1-c1ccccc1)C(=O)O [Example 678]	73
CSCC[C@H](NC(=O)c1ccc(CNc2cc[nH]n2)cc1-c1ccccc1)C(=O)O [Example 370]	86
CSCC[C@H](NC(=O)c1ccc(CNc2ccc(I)cc2)cc1-c1ccccc1)C(=O)O [Example 688]	71
CSCC[C@H](NC(=O)c1ccc(CNC(CO)C(O)c2ccccc2)cc1-c1ccccc1)C(=O)O (stereo partly shown) [Example 713]	40
C=C[C@@H](CC1CCCCC1)NCc1ccc(C(=O)N[C@@H](CCSC)C(=O)O)c(-c2ccccc2)c1 [Example 664]	75

same assay, conditions: 1 × 10^-6 M (Table 2)

SMILES	% inhibition of farnesyltransferase at 1 × 10^-6 M [%]
CSCCC(NC(=O)c1ccc(CNC(CO)c2ccccc2)cc1-c1ccccc1)C(=O)O (stereo not shown) [Example 658]	73
CSCC[C@H](NC(=O)c1ccc(CN[C@@H](/C=C\CC(C)C)CC2CCCCC2)cc1-c1ccccc1)C(=O)O [Example 665]	55
CSCC[C@H](NC(=O)c1ccc(CN(C)C(C)(C)Cc2ccccc2)cc1-c1ccccc1C)C(=O)O [Example 982]	64
CSCC[C@H](NC(=O)c1ccc(CN(Cc2ccccc2)Cc2ccco2)cc1-c1ccccc1C)C(=O)O [Example 504]	90
CSCC[C@H](NC(=O)c1ccc(CN(Cc2ccc(C(F)(F)F)cc2)c2ccccc2)cc1-c1ccccc1C)C(=O)O [Example 782]	96
CSCC[C@H](NC(=O)c1cc(Cc2ccccc2)c(COCCCc2ccccc2)cc1-c1ccccc1C)C(=O)O [Example 925]	87
CSCC[C@H](NC(=O)c1ccc(CN[C@H](/C=C\CC(C)C)CC2CCCCC2)cc1-c1ccccc1)C(=O)O [Example 666]	82
CSCC[C@H](NC(=O)c1ccc(CN(Cc2ccoc2)C(C)C)cc1-c1ccccc1C)C(=O)O [Example 832]	80
CSCC[C@H](NC(=O)c1ccc(NCCO)cc1-c1ccccc1)C(=O)O [Example 502]	24
CSCC[C@H](NC(=O)c1ccc(CNCCN2CCCC2)cc1-c1ccccc1)C(=O)O [Example 641]	34
CSCC[C@H](NC(=O)c1ccc(CN(CCO)c2ccccc2)cc1-c1ccccc1)C(=O)O [Example 505]	72
CSCCC(CO)NCc1ccc(C(=O)N[C@@H](CCSC)C(=O)O)c(-c2ccccc2)c1 (stereo partly shown) [Example 633]	32
CCOC(=O)c1ccc(NCc2ccc(C(=O)N[C@@H](CCSC)C(=O)O)c(-c3ccccc3)c2)cc1 [Example 646]	58

same assay, conditions: 1 × 10^-7 M (Table 3)

SMILES	% inhibition of farnesyltransferase at 1 × 10^-7 M [%]
CSCC[C@H](NC(=O)c1ccc(COCc2ccc(-c3cccc([N+](=O)[O-])c3)o2)cc1-c1ccccc1C)C(=O)[O-].[Li+] [Example 440]	92
CSCC[C@H](NC(=O)c1ccc(COCc2ccc(-c3ccc(Cl)cc3)o2)cc1-c1ccccc1C)C(=O)O [Example 443]	97
CSCC[C@H](NC(=O)c1ccc(COCc2ccc(C(C)C)cc2)cc1-c1ccccc1C)C(=O)[O-].[Li+] [Example 940]	92
CSCC[C@H](NC(=O)c1ccc(COCc2cnco2)cc1-c1ccccc1C)C(=O)[O-].[Li+] [Example 891]	94
CSCC[C@H](NC(=O)c1ccc(CNC(CC2CCCCC2)C2CCCCC2)cc1-c1ccccc1C)C(=O)[O-].[Li+] (stereo partly shown) [Example 616]	95
CSCC[C@H](NC(=O)c1ccc(COCCc2ccc(-c3ccc(Cl)cc3)o2)cc1-c1ccccc1C)C(=O)[O-].[Li+] [Example 536]	79
CSCC[C@H](NC(=O)c1ccc(CNC(CC2CCCCC2)CC2CCCCC2)cc1-c1ccccc1C)C(=O)O [Example 524]	99
CSCC[C@H](NC(=O)c1ccc(CN(CCC2CCCCC2)C(C)=O)cc1-c1ccccc1C)C(=O)[O-].[Li+] [Example 609]	95
C=C(C)C1CC=C(COCc2ccc(C(=O)N[C@@H](CCSC)C(=O)O)c(-c3ccccc3C)c2)CC1 (stereo partly shown) [Example 521]	94
CSCC[C@H](NC(=O)c1ccc(COCc2ccc(-c3ccc(F)cc3)o2)cc1-c1ccc(F)cc1Cl)C(=O)[O-].[Li+] [Example 869]	92
CSCC[C@H](NC(=O)c1ccc(CSc2nc3ccccc3[nH]2)cc1-c1ccccc1C)C(=O)O [Example 732]	84
CSCC[C@H](NC(=O)c1ccc(COCc2cnc(-c3cccc(Cl)c3)o2)cc1-c1ccccc1C)C(=O)[O-].[Li+] [Example 893]	87
CSCC[C@H](NC(=O)c1ccc(COCc2ccc(Cl)cc2)cc1-c1ccccc1C)C(=O)[O-].[Li+] [Example 933]	91

same assay, conditions: 1 × 10^-8 M (Table 4)

SMILES	% inhibition of farnesyltransferase at 1 × 10^-8 M [%]
CSCC[C@H](NC(=O)c1ccc(CN(Cc2ccccc2)c2cccc([N+](=O)[O-])c2)cc1-c1ccccc1C)C(=O)[O-].[Li+] [Example 842]	88
CSCC[C@H](NC(=O)c1ccc(COCc2cnc(-c3ccccc3Cl)o2)cc1-c1ccccc1C)C(=O)[O-].[Li+] [Example 892]	59
CCCCS(=O)(=O)N(CCC1CCCCC1)Cc1ccc(C(=O)N[C@@H](CCSC)C(=O)O)c(-c2ccccc2C)c1 [Example 916]	96
CSCC[C@H](NC(=O)c1ccc(CN(Cc2cncs2)S(=O)(=O)c2ccc(C)cc2)cc1-c1ccccc1C)C(=O)O [Example 877]	68
CSCC[C@H](NC(=O)c1ccc(CN(CCC2CCCCC2)Cc2cncs2)cc1-c1ccccc1C)C(=O)O [Example 986]	95
CSCC[C@H](NC(=O)c1ccc(COCc2cccc(C(C)C)c2)cc1-c1ccccc1C)C(=O)[O-].[Li+] [Example 939]	72

same assay, conditions: read-out: % inhibition at 0.01 μM (**); Table 6, ** = 0.01 μM (footnote); title prints 0.01 mM

SMILES	inhibition at 0.01 µM [%]
CCCCN(CC1CCCCC1)OCc1ccc(C(=O)N[C@@H](CCSC)C(=O)O)c(-c2ccccc2C)c1 [Example 1186]	93

same assay, conditions: read-out: % inhibition of farnesyltransferase at 1 × 10^-6 M; 1 × 10^-6 M (Table 2)

SMILES	inhibition at 1 µM [%]
CCCCN(C)N(CCC1CCCCC1)Cc1ccc(C(=O)N[C@@H](CCSC)C(=O)O)c(-c2ccccc2C)c1 [Example 299]	94
CSCC[C@H](NC(=O)c1ccc(/C=C/c2cnc(Oc3ccccc3)cn2)cc1-c1ccccc1C)C(=O)O [Example 812, lithium salt]	94
Cc1ccccc1-c1cc(CCc2ccccc2Oc2ccccc2)ccc1C(=O)N[C@@H](CC[S+](C)[O-])C(=O)O (stereo partly shown) [Example 456, N-[4-(2-(2-phenoxyphenyl)ethyl)-2-(2-methylphenyl)benzoyl]-2-amino-4-methylsulfinylbutanoic acid lithium salt]	81
CSCC[C@H](NC(=O)c1ccc(C=Cc2ccccc2Oc2ccccc2)cc1-c1ccccc1C)C(=O)O [Example 453, N-[4-(2-(2-phenoxyphenyl)ethen-1-yl)-2-(2-methylphenyl)benzoyl]methionine lithium salt]	90
Cc1ccccc1-c1cc(CCc2cccc(Oc3ccccc3)c2)ccc1C(=O)N[C@@H](CC[S+](C)[O-])C(=O)O (stereo partly shown) [Example 460, N-[4-(2-(3-phenoxyphenyl)ethyl)-2-(2-methylphenyl)benzoyl]-2-amino-4-methylsulfinylbutanoic acid lithium salt]	88
CSCC[C@H](NC(=O)c1ccc(/C=C/CCc2ccccc2)cc1-c1ccccc1C)C(=O)O [Example 472, N-[4-(4-phenylbut-1-enyl)-2-(2-methylphenyl)benzoyl]methionine]	97
CSCC[C@H](NC(=O)c1ccc(CN2CCC[C@H]2COCc2ccccc2)cc1-c1ccccc1C)C(=O)O [Example 824, N-[4-(2-benzyloxymethylpyrrolidin-1-ylmethyl)-2-(2-methylphenyl)benzoyl]methionine]	90

same assay, conditions: read-out: % inhibition of farnesyltransferase at 1 × 10^-7 M; 1 × 10^-7 M (Table 3)

SMILES	inhibition at 0.1 µM [%]
CSCC[C@H](NC(=O)c1ccc(CN2CCCC(OCC3CCCCC3)C2)cc1-c1ccccc1C)C(=O)O (stereo partly shown) [Example 990, N-[4-(3-cyclohexylmethoxypiperidin-1-ylmethyl)-2-(2-methylphenyl)benzoyl]methionine]	84
CSCC[C@H](NC(=O)c1ccc(C=Cc2cncs2)cc1-c1ccccc1C)C(=O)O [Example 785, N-[4-(2-(thiazol-5-yl)ethen-1-yl)-2-(2-methylphenyl)benzoyl]methionine lithium salt]	96
